According to patent US20250154127A1, “BICYCLIC HETEROARYL COMPOUNDS AND USES THEREOF” (ETERN BIOPHARMA (SHANGHAI) CO., LTD., priority 2022, published 2025):

Tests used:
[1] = biological target: TEAD1(210-426) binding to YAP(50-100) (Homo sapiens, UniProt P28347); assay: TR-FRET Assay for TEAD1(210-426) Binding to YAP(50-100); conditions: His-TEAD 10 nM, YAP-Biotin peptide 50 nM
How it was run: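 10 nM His-TEAD1 preincubated 30 min at room temperature with compound (3-fold dilutions, 12 points, 1% DMSO), then 50 nM biotin-YAP peptide added.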

MSTO-211H cells = assay: Proliferation Assay (CellTiter-Glo Luminescent Cell Viability Assay); type: cell-based; conditions: Homo sapiens, 96 hours treatment
How it was run: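 MSTO-211H cells, 1,500/well in RPMI 1640 with 10% FBS, plated overnight, then treated 96 h with 9-point 3-fold compound series in duplicate (DMSO below 0.5%). Viability by CellTiter-Glo luminescence; inhibition relative to DMSO wells, IC50 by four-parameter fit.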

Sequence of TEAD1(210-426) binding to YAP(50-100) (P28347 209-426): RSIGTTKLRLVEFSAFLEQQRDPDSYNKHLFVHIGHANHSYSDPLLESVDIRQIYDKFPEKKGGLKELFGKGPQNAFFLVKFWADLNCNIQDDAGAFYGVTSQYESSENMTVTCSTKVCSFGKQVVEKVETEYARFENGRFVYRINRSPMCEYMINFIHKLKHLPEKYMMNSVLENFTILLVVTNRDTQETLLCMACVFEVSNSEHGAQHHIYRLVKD

IC50 [1]	Structure (SMILES)	IC50 (MSTO-211H cells)
≤ 100 nM	O=c1cc(-c2nn(-c3ccc(C(F)(F)F)cc3)c3ccccc23)ccn1Cc1nccc(N2CC(O)C2)n1 [Compound 85, 1-((4-(3-hydroxyazetidin-1-yl)pyrimidin-2-yl)methyl)-4-(1-(4-(trifluoromethyl)phenyl)-1H-indazol-3-yl)pyridin-2(1H)-one]	≤ 1000 nM
≤ 100 nM	CNc1nccc(Cn2ccc(-n3nc(-c4ccc(C(F)(F)F)cc4)c4ncccc43)cc2=O)n1 [Compound 42, 1-((2-(methylamino)pyrimidin-4-yl)methyl)-4-(3-(4-(trifluoromethyl)phenyl)-1H-pyrazolo[4,3-b]pyridin-1-yl)pyridin-2(1H)-one]	≤ 1000 nM
≤ 100 nM	CNc1nccc(Cn2ccc(-c3nn(-c4ccc(C(F)(F)F)cc4)c4cccc(F)c34)cc2=O)n1 [Compound 158, 4-(1-(4-((difluoro-13-methyl)-12-fluoranyl)phenyl)-4-fluoro-1H-indazol-3-yl)-1-((2-(methylamino)pyrimidin-4-yl)methyl)pyridin-2(1H)-one]	≤ 1000 nM
100 to 1000 nM	COc1ccnc(Cn2ccc(-c3nn(-c4ccc(C(F)(F)F)cc4)c4nccnc34)cc2=O)n1 [Compound 105, 1-((4-methoxypyrimidin-2-yl)methyl)-4-(1-(4-(trifluoromethyl)phenyl)-1H-pyrazolo[3,4-b]pyrazin-3-yl)pyridin-2(1H)-one]	≤ 1000 nM
≤ 100 nM	C[C@@H](c1ccccn1)n1ccc(-c2nn(-c3ccc(C(F)(F)F)cc3)c3ccccc23)cc1=O [Compound 11, (S)-1-(1-(pyridin-2-yl)ethyl)-4-(1-(4-(trifluoromethyl)phenyl)-1H-indazol-3-yl)pyridin-2(1H)-one]	≤ 1000 nM
≤ 100 nM	CNc1nccc([C@H](C)n2ccc(-c3nn(-c4ccc(C(F)(F)F)cc4)c4ncccc34)cc2=O)n1 [Compound 131, (S)-1-(1-(2-(methylamino)pyrimidin-4-yl)ethyl)-4-(1-(4-(trifluoromethyl)phenyl)-1H-pyrazolo[3,4-b]pyridin-3-yl)pyridin-2(1H)-one]	≤ 1000 nM
≤ 100 nM	O=c1cc(-n2nc(-c3ccc(C(F)(F)F)cc3)c3ncccc32)ccn1Cc1ccnc(NCCO)n1 [Compound 46, 1-((2-((2-hydroxyethyl)amino)pyrimidin-4-yl)methyl)-4-(3-(4-(trifluoromethyl)phenyl)-1H-pyrazolo[4,3-b]pyridin-1-yl)pyridin-2(1H)-one]	≤ 1000 nM
≤ 100 nM	C[C@@H](c1ccccn1)n1ccc(-c2nn(-c3ccc(OC(F)(F)F)cc3)c3cccnc23)cc1=O [Compound 1, (S)-1-(1-(pyridin-2-yl)ethyl)-4-(1-(4-(trifluoromethoxy)phenyl)-1H-pyrazolo[4,3-b]pyridin-3-yl)pyridin-2(1H)-one]	≤ 1000 nM
≤ 100 nM	Cn1ccc(Cn2ccc(-c3nn(-c4ccc(C(F)(F)F)cc4)c4ccccc34)cc2=O)n1 [Compound 38, 1-((1-methyl-1H-pyrazol-3-yl)methyl)-4-(1-(4-(trifluoromethyl)phenyl)-1H-indazol-3-yl)pyridin-2(1H)-one]	≤ 1000 nM
≤ 100 nM	CNc1nccc(Cn2ccc(-c3nn(-c4ccc(C(F)(F)F)cc4)c4nccnc34)cc2=O)n1 [Compound 99, 1-((2-(methylamino)pyrimidin-4-yl)methyl)-4-(1-(4-(trifluoromethyl)phenyl)-1H-pyrazolo[3,4-b]pyrazin-3-yl)pyridin-2(1H)-one]	≤ 1000 nM
≤ 100 nM	CNc1ccnc(Cn2ccc(-c3nn(-c4ccc(C(F)(F)F)cc4)c4c(F)cccc34)cc2=O)n1 [Compound 129, 4-(7-fluoro-1-(4-(trifluoromethyl)phenyl)-1H-indazol-3-yl)-1-((4-(methylamino)pyrimidin-2-yl)methyl)pyridin-2(1H)-one]	≤ 1000 nM
≤ 100 nM	CNc1nccc(Cn2ccc(-c3nn(-c4ccc(C(F)(F)F)cc4)c4c(F)cccc34)cc2=O)n1 [Compound 128, 4-(7-fluoro-1-(4-(trifluoromethyl)phenyl)-1H-indazol-3-yl)-1-((2-(methylamino)pyrimidin-4-yl)methyl)pyridin-2(1H)-one]	≤ 1000 nM
≤ 100 nM	O=c1cc(-c2nn(-c3ccc(C(F)(F)F)cc3)c3cccc(F)c23)ccn1Cc1ccnc(OCCO)n1 [Compound 153, 4-(4-fluoro-1-(4-(trifluoromethyl)phenyl)-1H-indazol-3-yl)-1-((2-(2-hydroxyethoxy)pyrimidin-4-yl)methyl)pyridin-2(1H)-one]	≤ 1000 nM
≤ 100 nM	CNc1ccnc(Cn2ccc(-n3nc(-c4ccc(C(F)(F)F)cc4)c4nccnc43)cc2=O)n1 [Compound 49, 1-((4-(methylamino)pyrimidin-2-yl)methyl)-4-(3-(4-(trifluoromethyl)phenyl)-1H-pyrazolo[3,4-b]pyrazin-1-yl)pyridin-2(1H)-one]	≤ 1000 nM
≤ 100 nM	CN(CCO)c1ccnc(Cn2ccc(-c3nn(-c4ccc(C(F)(F)F)cc4)c4ncccc34)cc2=O)n1 [Compound 75, 1-((4-((2-hydroxyethyl)(methyl)amino)pyrimidin-2-yl)methyl)-4-(1-(4-(trifluoromethyl)phenyl)-1H-pyrazolo[3,4-b]pyridin-3-yl)pyridin-2(1H)-one]	≤ 1000 nM
≤ 100 nM	CNc1cc(Cn2ccc(-c3nn(-c4ccc(C(F)(F)F)cc4)c4ncccc34)cc2=O)ncn1 [Compound 98, 1-((6-(methylamino)pyrimidin-4-yl)methyl)-4-(1-(4-(trifluoromethyl)phenyl)-1H-pyrazolo[3,4-b]pyridin-3-yl)pyridin-2(1H)-one]	≤ 1000 nM
≤ 100 nM	O=c1cc(-n2nc(-c3ccc(C(F)(F)F)cc3)c3ncccc32)ccn1Cc1ccnc(OCCO)n1 [Compound 56, 1-((2-(2-hydroxyethoxy)pyrimidin-4-yl)methyl)-4-(3-(4-(trifluoromethyl)phenyl)-1H-pyrazolo[4,3-b]pyridin-1-yl)pyridin-2(1H)-one]	≤ 1000 nM
> 1000 nM	C[C@@H](c1ccccn1)n1ccc(-c2nn(-c3ccc(C(F)(F)F)cc3)c3cc(C(N)=O)ccc23)cc1=O [Compound 30, (S)-3-(2-oxo-1-(1-(pyridin-2-yl)ethyl)-1,2-dihydropyridin-4-yl)-1-(4-(trifluoromethyl)phenyl)-1H-indazole-6-carboxamide]	≤ 1000 nM
≤ 100 nM	O=c1cc(-c2nn(-c3ccc(C(F)(F)F)cc3)c3ccccc23)ccn1Cc1ccnc(N2CC(O)C2)n1 [Compound 95, 1-((2-(3-hydroxyazetidin-1-yl)pyrimidin-4-yl)methyl)-4-(1-(4-(trifluoromethyl)phenyl)-1H-indazol-3-yl)pyridin-2(1H)-one]	≤ 1000 nM
≤ 100 nM	O=c1cc(-c2nn(-c3ccc(C(F)(F)F)cc3)c3ncccc23)ccn1Cc1ccnc(NCCO)n1 [Compound 73, 1-((2-((2-hydroxyethyl)amino)pyrimidin-4-yl)methyl)-4-(1-(4-(trifluoromethyl)phenyl)-1H-pyrazolo[3,4-b]pyridin-3-yl)pyridin-2(1H)-one]	≤ 1000 nM
≤ 100 nM	Nc1cncc(Cn2ccc(-c3nn(-c4ccc(C(F)(F)F)cc4)c4ccccc34)cc2=O)n1 [Compound 65, 1-((6-aminopyrazin-2-yl)methyl)-4-(1-(4-(trifluoromethyl)phenyl)-1H-indazol-3-yl)pyridin-2(1H)-one]	≤ 1000 nM
